Like-named read-outs stand apart in the source and are kept apart here.

Common to all, as to type: cell-based
The test system of test [1] is SKBr3 and MCF-7 cell lines. The test can be described thus: Anti-proliferative activity against both breast cancer cell lines (results in words). The conditions noted are these: SKBr3 and MCF-7, Tables 1-5. Here is the method: (§1) Cells were maintained in a 1:1 mixture of Advanced DMEM/F12 (Gibco) supplemented with non-essential amino acids, L-glutamine (2 mM), streptomycin (500 μg/mL), penicillin (100 units/mL), and 10% FBS. Cells were grown to confluence in a humidified atmosphere (37° C., 5% CO2), seeded (2000/well, 100 μL) in 96-well plates, and allowed to attach overnight. Compound at varying concentrations in DMSO (1% DMSO final concentration) was added, and cells were returned to the incubator for 72 h. At 72 h, the number of viable cells was determined using an MTS/PMS cell proliferation kit (Promega) per the manufacturer's instructions. Cells incubated in 1% DMSO were used at 100% proliferation, and values were adjusted accordingly. IC50 values were calculated from separate experiments performed in triplicate using GraphPad Prism.
The anti-proliferative activity of these compounds is evaluated against two breast cancer cell lines, SKBr3 (estrogen receptor negative, Her2 over-expressing breast cancer cells) and MCF-7 (estrogen receptor positive breast cancer cells).

For test [2], the system named is SKBr3 (estrogen receptor negative, Her2 over-expressing breast cancer cells). Nature of the test: Anti-proliferation assay (MTS/PMS, 72 h), SKBr3.
Test [3] has as its system MCF-7 (estrogen receptor positive breast cancer cells). The test can be described thus: Anti-proliferation assay (MTS/PMS, 72 h), MCF-7.
The test system of test [4] is MDA1986. Nature of the test: Anti-proliferation assay, MDA1986. The note with it: MDA1986; Table 6, substituted phenyl ureas; HSNCC. Here is the method: as §1
Test [5] deals with PC-3. Nature of the test: Anti-proliferation assay, PC-3. The note with it: Homo sapiens, PC-3; Table 6, substituted phenyl ureas; Prostate Cancer. Here is the method:
as §1

Test [6] deals with DRO81-1. Nature of the test: Anti-proliferation assay, DRO81-1. The conditions noted are these: Table 6, substituted phenyl ureas; Thyroid. Here is the method:
as §1

In test [7] the test system is MDAMB231. The test can be described thus: Anti-proliferation assay, MDAMB231. The conditions noted are these: Homo sapiens, MDA-MB-231; Table 6, substituted phenyl ureas; Tri-Neg. The protocol: as §1
The test system of test [8] is HCT-116. The test can be described thus: Anti-proliferation assay, HCT-116. The note with it: Homo sapiens, HCT-116; Table 6, substituted phenyl ureas. Here is the method:
as §1

Test [9] relates to JMAR. The test can be described thus: Anti-proliferation assay, JMAR. The conditions noted are these: JMAR; Table 6, substituted phenyl ureas; HSNCC. Here is the method:
as §1

In test [10] the test system is A-549. Nature of the test: Anti-proliferation assay, A-549. The conditions noted are these: Homo sapiens, A549; Table 6, substituted phenyl ureas. The protocol: as §1
Test [11] has as its system HMLE. The test can be described thus: Anti-proliferation assay, HMLE (normal). The conditions noted are these: HMLE, Table 6, substituted phenyl ureas. A digest of the protocol: (§2)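 Cells were seeded at 2000/well in Advanced DMEM/F12 with 10% FBS and attached overnight, then exposed to compound (1% DMSO final) for 72 h at 37 °C.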
Test [12] deals with MRC5. The test can be described thus: Anti-proliferation assay, MRC5 (normal). The note with it: Homo sapiens, MRC5, Table 6, substituted phenyl ureas. A digest of the protocol:
as §2

The mark [13] stands for this setting: Homo sapiens, SK-BR-3, Table 5, alkylether derivatives with cyclic N-substitutions, read-out: SKBr3.
Where [14] appears, read: Homo sapiens, MCF7, Table 5, alkylether derivatives with cyclic N-substitutions, read-out: MCF-7.
Setting [15] is: Table 4, alkylamino analogues, read-out: SKBr3.
The mark [16] stands for this setting: Table 4, alkylamino analogues, read-out: MCF-7.
The mark [17] stands for this setting: Homo sapiens, SK-BR-3, Table 1, modified benzamide coumarin derivatives, read-out: SKBr3.
Where [18] appears, read: Homo sapiens, MCF7, Table 1, modified benzamide coumarin derivatives, read-out: MCF-7.
Setting [19] is: Homo sapiens, SK-BR-3, Table 2, modified benzamide and biphenylamide derivatives (in μM), read-out: SKBr3.
The mark [20] stands for this setting: Homo sapiens, MCF7, Table 2, modified benzamide and biphenylamide derivatives (in μM), read-out: MCF-7.

`CC(C)=CCc1cc(C(=O)Nc2cc3ccc(OCCCNC45CC6CC(CC(C6)C4)C5)c(C)c3oc2=O)ccc1O` [Compound 70j, N-(7-(3-((3S,5S,7S)-adamantan-1-ylamino)propoxy)-8-methyl-2-oxo-2H-chromen-3-yl)-4-hydroxy-3-(3-methylbut-2-en-1-yl)benzamide]: the “anti-proliferative activity (in words)” value in test [1] is reported as “good anti-proliferative activity”. Also, the IC50 was determined as 0.31 ± 0.04 µM in test [2] (setting [13]) and 0.32 ± 0.03 µM in [3] (setting [14]).

Regarding `CC(C)=CCc1cc(C(=O)Nc2cc3ccc(OCCCNCCO)c(C)c3oc2=O)ccc1O` [Compound 68o], in test [1], the “anti-proliferative activity (in words)” value is “retains activity”. Further, the IC50 in [2] (setting [15]) turned out to be 0.61 ± 0.06 µM; in test [3] (setting [16]), 1.56 ± 0.09 µM.

For the molecule `C=CCc1cc(C(=O)Nc2cc3ccc(OC4CCN(C)CC4)c(C)c3oc2=O)ccc1OC(C)=O` [Compound 21a, 2-allyl-4-((8-methyl-7-((1-methylpiperidin-4-yl)oxy)-2-oxo-2H-chromen-3-yl)carbamoyl)phenyl acetate], in test [1], the “anti-proliferative activity (in words)” value is on record as “decreased anti-proliferative activities”. Besides, the IC50 in [2] (setting [17]) is 2.26 ± 0.12 µM; in test [3] (setting [18]) it was 2 ± 0.18 µM.

As to `CC(C)=CCc1cc(C(=O)Nc2cc3ccc(OCCCNCC(=O)O)c(C)c3oc2=O)ccc1O` [Compound 68m], in test [1], the “anti-proliferative activity (in words)” value is “decreased anti-proliferative activity”. Further, the figures for the IC50 in test [2] (setting [15]) and in test [3] (setting [16]) were 7.57 ± 2.86 µM and 18.1 ± 5.35 µM, respectively.

For the molecule `Cc1c(OC2CCN(C)CC2)ccc2cc(NC(=O)c3ccccc3)c(=O)oc12` [Compound 21d, N-(8-methyl-7-(1-methylpiperidin-4-yloxy)-2-oxo-2H-chromen-3-yl)benzamide], the “anti-proliferative activity (in words)” value in test [1] is on record as “significantly decreased activity”. Further, the IC50 in test [2] (setting [17]) was determined as 11.5 ± 2 µM; in [2] (Homo sapiens, SK-BR-3, amide versus urea linkage, read-out: IC50 for SKBr3), 11.5 µM; in test [3] (setting [18]), 11.7 ± 1 µM; in test [3] (Homo sapiens, MCF7, amide versus urea linkage, read-out: IC50 for MCF-3), 11.7 µM.

With `COc1ccc(C(=O)Nc2cc3ccc(OC4CCN(C)CC4)c(C)c3oc2=O)cc1-c1cccc(OC(C)=O)c1` [Compound 32b, 2′-methoxy-5′-(8-methyl-7-(1-methylpiperidin-4-yloxy)-2-oxo-2H-chromen-3-ylcarbamoyl)biphenyl-3-yl acetate], the “anti-proliferative activity (in words)” value in test [1] is listed as “increases activity almost three-fold”. The IC50 in test [2] (setting [19]) turned out to be 0.29 ± 0.01 µM; in test [3] (setting [20]), 0.36 ± 0.06 µM.

Consider `COc1ccc(C(=O)Nc2cc3ccc(OC4CCN(C)CC4)c(C)c3oc2=O)cc1-c1cccc(O)c1` [Compound 33b, 3′-hydroxy-6-methoxy-N-(8-methyl-7-(1-methylpiperidin-4-yloxy)-2-oxo-2H-chromen-3-yl)biphenyl-3-carboxamide], for which the “anti-proliferative activity (in words)” value in test [1] is listed as “increases activity almost three-fold”. Further, the IC50 was 0.31 ± 0.04 µM in test [2] (setting [19]) and 0.38 ± 0.08 µM in test [3] (setting [20]).

Take `C=CCc1cc(C(=O)Nc2cc3ccc(OC4CCN(C)CC4)c(C)c3oc2=O)ccc1O` [Compound 22a, 3-allyl-4-hydroxy-N-(8-methyl-7-((1-methylpiperidin-4-yl)oxy)-2-oxo-2H-chromen-3-yl)benzamide]: in test [1], the “anti-proliferative activity (in words)” value is given as “decreased anti-proliferative activities”. The figures for the IC50 in test [2] (setting [17]) and in test [3] (setting [18]) were 2.43 ± 0.04 µM and 2.17 ± 0.11 µM, respectively.

As for `CC(C)=CCc1cc(C(=O)Nc2cc3ccc(OCCCN(C)Cc4ccccc4)c(C)c3oc2=O)ccc1O` [Compound 70h, N-(7-(3-(benzyl(methyl)amino)propoxy)-8-methyl-2-oxo-2H-chromen-3-yl)-4-hydroxy-3-(3-methylbut-2-en-1-yl)benzamide], the “anti-proliferative activity (in words)” value in test [1] was “greatly decreased activity”. Further, the IC50 in test [2] (setting [13]) was 10.7 ± 0.49 µM; in test [3] (setting [14]), 11.5 ± 4.16 µM.

Consider `CC(C)=CCc1cc(C(=O)Nc2cc3ccc(OCCCNc4ccccc4)c(C)c3oc2=O)ccc1O` [Compound 70c], for which, in test [1], the “anti-proliferative activity (in words)” value is “inactive”. In addition, the IC50 is greater than 50 µM in [2] (Table 5, alkylether derivatives with cyclic N-substitutions, read-out: SKBr3) and greater than 50 µM in [3] (Table 5, alkylether derivatives with cyclic N-substitutions, read-out: MCF-7).

For `COc1cccc(-c2cc(C(=O)Nc3cc4ccc(OC5CCN(C)CC5)c(C)c4oc3=O)ccc2O)c1` [Compound 33a, 6-hydroxy-3′-methoxy-N-(8-methyl-7-(1-methylpiperidin-4-yloxy)-2-oxo-2H-chromen-3-yl)biphenyl-3-carboxamide], in test [1], the “anti-proliferative activity (in words)” value is “maintains inhibitory activity”. Also, the IC50 came out at 0.86 ± 0.16 µM in test [2] (setting [19]) and 0.81 ± 0.14 µM in test [3] (setting [20]).

`Cc1c(OC2CCN(C)CC2)ccc2cc(NC(=O)c3ccc4c(c3)CCC(C)(C)O4)c(=O)oc12` [Compound 20, 2,2-dimethyl-N-(8-methyl-7-(1-methylpiperidin-4-yloxy)-2-oxo-2H-chromen-3-yl)chroman-6-carboxamide]: the “anti-proliferative activity (in words)” value in test [1] is recorded as “decreased anti-proliferative activities”. Further, the values for the IC50 in [2] (setting [17]) and in test [3] (setting [18]) were 3.46 ± 0.02 µM and 5.01 ± 0.01 µM, respectively.

On to `CC(C)=CCc1cccc(C(=O)Nc2cc3ccc(OC4CCN(C)CC4)c(C)c3oc2=O)c1` [Compound 21c, N-(8-methyl-7-((1-methylpiperidin-4-yl)oxy)-2-oxo-2H-chromen-3-yl)-3-(3-methylbut-2-en-1-yl)benzamide], for which the “anti-proliferative activity (in words)” value in test [1] is listed as “two-fold lower activity”. For the same molecule, the figures for the IC50 in test [2] (setting [17]) and in test [3] (setting [18]) were 1.68 ± 0.12 µM and 2.1 ± 0.08 µM, respectively.

For `CC(C)=CCc1cc(C(=O)Nc2cc3ccc(OCCCNCC(N)=O)c(C)c3oc2=O)ccc1O` [Compound 68n], the “anti-proliferative activity (in words)” value in test [1] is “decreased anti-proliferative activity”. For the same molecule, the IC50 is 2.29 ± 0.47 µM in test [2] (setting [15]) and 1.46 ± 0.35 µM in [3] (setting [16]).

In the case of `CC(C)=CCc1cc(C(=O)Nc2cc3ccc(OCCCN4CCCCC4)c(C)c3oc2=O)ccc1O` [Compound 65, 4-hydroxy-N-(8-methyl-2-oxo-7-(3-(piperidin-1-yl)propoxy)-2H-chromen-3-yl)-3-(3-methylbut-2-en-1-yl)benzamide], the “anti-proliferative activity (in words)” value in test [1] is “inactive at the highest concentrations tested”.

As to `CC(C)=CCc1cc(C(=O)Nc2cc3ccc(OCCCN4CCCC4)c(C)c3oc2=O)ccc1O` [Compound 66, 4-hydroxy-N-(8-methyl-2-oxo-7-(3-(pyrrolidin-1-yl)propoxy)-2H-chromen-3-yl)-3-(3-methylbut-2-en-1-yl)benzamide], in [1], the “anti-proliferative activity (in words)” value is recorded as “restores activity”.

In the case of `CC(C)=CCc1cc(C(=O)Nc2cc3ccc(OCCCN4CCOCC4)c(C)c3oc2=O)ccc1O` [Compound 64, 4-hydroxy-N-(8-methyl-7-(3-morpholinopropoxy)-2-oxo-2H-chromen-3-yl)-3-(3-methylbut-2-en-1-yl)benzamide], in [1], the “anti-proliferative activity (in words)” value was “inactive at the highest concentrations tested”.

As for `CC(C)=CCc1cc(C(=O)Nc2cc3ccc(OCCCN4CCN(C)CC4)c(C)c3oc2=O)ccc1O` [Compound 62, 4-hydroxy-N-(8-methyl-7-(3-(4-methylpiperazin-1-yl)propoxy)-2-oxo-2H-chromen-3-yl)-3-(3-methylbut-2-en-1-yl)benzamide], the “anti-proliferative activity (in words)” value in [1] was “maintain activity comparable to the N-methylpiperidine derivative”.

Turning to `Cc1c(OC2CCN(C)CC2)ccc2cc(NC(=O)Nc3ccc(C(F)(F)F)cc3)c(=O)oc12` [p-CF3, 1-(8-methyl-7-((1-methylpiperidin-4-yl)oxy)-2-oxo-2H-chromen-3-yl)-3-(4-(trifluoromethyl)phenyl)urea], the IC50 was found to be 0.9 µM in test [4]; 0.35 µM in test [2] (Homo sapiens, SK-BR-3, Table 6, substituted phenyl ureas, Breast Cancer, read-out: IC50 SKBr3); 0.06 µM in [5]; 0.64 µM in [6]; 0.43 µM in [7]; 0.8 µM in test [8]. Moreover, the IC50 in test [3] (Homo sapiens, MCF7, Table 6, substituted phenyl ureas, Breast Cancer, read-out: IC50 MCF-3) is 0.47 µM; in test [9] it was 3.6 µM; in [10], 0.13 µM; in [11], 15.5 µM; in test [12], 3.1 µM.

The record behind these values is patent US10030006B2, “Coumarin based Hsp90 inhibitors with urea and ether substituents” (University of Kansas, priority 2013, dated 2018).
